The EC50 is the concentration needed to bring the measured effect to its halfway point.

This test concerns the target T1, rice OsPYL2 + Arabidopsis AtHAB1 (Oryza sativa subsp. japonica, UniProt Q5Z8S0).
T1 construct: made in house; host or cells: E. coli BL21 (DE3)
T1 sequence (Q5Z8S0 1-207): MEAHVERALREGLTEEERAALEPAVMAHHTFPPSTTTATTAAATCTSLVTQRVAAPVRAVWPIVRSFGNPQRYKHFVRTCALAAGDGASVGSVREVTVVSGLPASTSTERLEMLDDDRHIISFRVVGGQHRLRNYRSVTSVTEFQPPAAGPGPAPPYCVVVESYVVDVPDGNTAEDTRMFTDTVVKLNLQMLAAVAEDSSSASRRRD
T1 sequence (Q9CAJ0 172-511 partner limits assumed): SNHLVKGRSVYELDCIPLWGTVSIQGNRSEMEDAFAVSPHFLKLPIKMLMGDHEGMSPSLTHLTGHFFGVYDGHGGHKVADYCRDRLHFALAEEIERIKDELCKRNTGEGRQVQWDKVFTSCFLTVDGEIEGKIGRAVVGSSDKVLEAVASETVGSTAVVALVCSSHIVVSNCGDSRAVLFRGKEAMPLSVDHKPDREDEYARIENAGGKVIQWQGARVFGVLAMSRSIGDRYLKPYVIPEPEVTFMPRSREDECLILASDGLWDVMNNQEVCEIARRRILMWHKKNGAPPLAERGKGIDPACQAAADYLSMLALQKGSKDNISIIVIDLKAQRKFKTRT
Nature of the test: AlphaScreen assay: promotion of the interaction of rice OsPYL2 with Arabidopsis HAB1. The format is binding, rice (OsPYL2); Arabidopsis thaliana (HAB1). The following applies: FIG. 13b; 6×His-SUMO-tagged rice OsPYL2, Biotin-tagged Arabidopsis HAB1 (aa 172-511), 100 nM each; pH 7.4; 1.5 h room temperature. From the text: Compound 0428 can promote the interaction of the Arabidopsis protein phosphatase HAB1 with soybean GmPYL6 or rice OsPYL2, and this interaction is dose-dependent.
The construction method of recombinant plasmids for the Arabidopsis thaliana genes PYL1 (amino acid sequence 36-211), PYL2 (amino acid sequence 14-188) with dual tags of 6×His and SUMO sequence and the Arabidopsis thaliana gene HAB1 (amino acid sequence 172-511) with the Biotin tag sequence is described in detail in “A gate-latch-lock mechanism for hormone signaling by abscisic acid receptors” (Nature, Vol 462, 2009). The construction method of recombinant plasmids for PYR1 and PYL7 (whole gene coding sequence) and Soybean GmPYL6 and rice OsPYL2 with dual tags of 6×His and SUMO sequence is the same as that for Arabidopsis PYL2.
The above recombinant plasmid is transformed into competent cell of E. coli BL21 (DE3) (purchased from NEB company), and inoculated into 200 ml of LB liquid medium containing Amp resistance (purchased from OXOID company) and cultured overnight at 37° C. at 200 rpm; and inoculated into 2 L of LB liquid medium containing Amp resistance at a ratio of 1:50-1:100 for an extended culture, and cultured at 37° C., 200 rpm for 3-4 hours, and at a low temperature of 16° C. until OD600 is about 0.8-1.0. […]
In general terms: Alpha assays give light when donor and acceptor beads are brought close together.

For `CC1=CC(=O)CC(C)(C)[C@@]1(O)/C=C/C(C)=C\C(=O)O` [ABA, Abscisic Acid, reference compound], the EC50 amounted to 0.149 µM.

Values taken from patent US11076597B2, “High stress resistant plant growth regulator and preparation method and use thereof” (SHANGHAI INSTITUTES FOR BIOLOGICAL SCIENCES, CHINESE …, priority 2015, dated 2021).
